Measurements published in patent US5516783A, “4-(1H-2-methylimidazo[4,5-c]pyridinylmethyl)phenylsulphonamide derivatives as antagonist of PAF” (British Biotech Pharmaceuticals Limited, priority 1992, dated 1996).

How the values were obtained:
[1] = test system: PAF-induced hypotension; assay: reversal of hypotension caused by an infusion of PAF in rats; format: in vivo, Male Sprague-Dawley rats; conditions: iv; i.v. bolus; PAF 100 ng/kg/min infused i.v.; anaesthetised rat; read-out: inhibition of PAF-induced hypotension in the rat, ED50 (dose to cause a 50% reversal of the hypotensive PAF response)
Procedure: Male Sprague-Dawley rats (300-350 g) were anaesthetised with a mixture of sodium pentobarbitone, 22.5 mg/kg and thiopental 62.5 mg/kg. Through a midline incision in the neck, the trachea was cannulated and the animals breathed spontaneously. A carotid artery was cannulated for the measurement of blood pressure and this signal was used to trigger a rate meter to measure heart rate. Both jugular veins were cannulated: one for the infusion of PAF and the other for the bolus administration of test compounds.
PAF, 100 ng/kg/min was infused i.v. until a sustained fall in mean blood pressure of 50 mmHg was achieved. […] The peak of this reversal was measured and the dose to cause a 50% reversal of the hypotensive PAF response (ED50) calculated by straight line interpolation and the results are presented in Table 2.

[2] = molecular target: T1, platelet activating factor (PAF) receptor (human platelet plasma membrane) (Homo sapiens, UniProt P25105); assay: inhibition of [^3 H]-PAF receptor binding to human platelet plasma membrane; conditions: [^3 H]-PAF 0.5 nM, 0° C., 1 hour, pH 7.0
T1 construct: Platelet concentrates were obtained from a hospital blood bank; from tissue; host or cells: human platelets (hospital blood bank concentrates), lysed plasma membrane preparation
Procedure: The inhibition of [^3 H]-PAF binding to human platelet plasma membrane by compounds of general formula I was determined by isotopic labelling and filtration techniques. Platelet concentrates were obtained from a hospital blood bank. These platelet concentrates (500-2500 ml.) were centrifuged at 800 rpm for 10 minutes in a SORVALL RC3B centrifuge to remove the red blood cells present. (The word SORVALL is a trade mark.) The supernatant was subsequently centrifuged at 3,000 rpm in a SORVALL RC3B centrifuge to pellet the platelets present. The platelet rich pellets were resuspended in a minimum volume of buffer (150 mM NaCl, 10 mM Tris, 2 mM EDTA, pH 7.5) and layered onto Ficoll-Paque gradients, 9 ml platelet concentrate to 2 ml Ficoll, and centrifuged at 1,900 rpm for 15 minutes in a SORVALL RT6000 centrifuge. This step removes the residual red blood cells and other nonspecific material such as lymphocytes from the preparation. The platelets which form a band between the plasma and the Ficoll were removed, resuspended in the above buffer and centrifuged at 3,000 rpm for 10 minutes in a SORVALL RT6000 centrifuge. The pelleted platelets were resuspended in buffer (10 mM Tris, 5 mM MgCl2, 2 mM EDTA, pH 7.0), snap freezed in liquid N2 and allowed to thaw slowly at room temperature in order to lyse the platelets. The latter step was repeated at least 3 times to ensure proper lysis. The lysed platelets were centrifuged at 3,000 rpm for 10 minutes in a SORVALL RT6000 centrifuge and resuspended in buffer. The latter step was repeated twice in order to remove any cytoplasmic proteins which may hydrolyse the platelet activating factor (PAF) receptor. The prepared platelet membranes may be stored at -70° C. After thawing the prepared membranes were centrifuged in a SORVALL RT6000 at 3,000 rpm for 10 minutes and resuspended in assay buffer.
The assay was conducted by preparing a series of Tris-buffered solutions of the selected antagonist of predetermined concentrations. Each of these solutions contained [^3 H]-PAF (0.5 nM; 1-O-[^3 H]octadecyl-2-acetyl-sn-glycero-3-phosphoryl choline with a specific activity of 132 Ci/mmol), unlabelled PAF (1000 nM), a known amount of the test antagonist, and a sufficient amount of Tris-buffer solution (10 mM Tris, 5 mM MgCl2, pH 7.0, 0.25% BSA) to make the final volume 1 ml. Incubation was initiated by the addition of 100 μg of the isolated membrane fraction to each of the above solutions at 0° C. Two control samples, one (C1 ) which contained all the ingredients described above except the antagonist and the other (C2) contains C1 plus a 1000-fold excess of unlabelled PAF, were also prepared and incubated simultaneously with the test samples.
After 1 hour incubation, each solution was filtered rapidly under vacuo through a WHATMAN GF/C glass fibre filter in order to separate unbound PAF from bound PAF. (The word WHATMAN is a trade mark.) The residue in each case was rapidly washed 4 times with 5 ml cold (4° C.) Tris-buffer solution. Each washed residue was dried under vacuum on a sampling manifold and placed into vials containing 20 ml of OPTIPHASE MP scintillation fluid and the radioactivity counted in a liquid scintillation counter. (The word OPTIPHASE is a trade mark.) Defining the counts for total binding with antagonist from a test sample as "TBA"; the counts for total binding from the control sample C1 as "TB"; and the counts for nonspecific binding from the control sample C2 as "NSB", the percent inhibition of each test antagonist can be determined by the following equation:
Inhibition=[(TB-TBA)/SB]×100
where the specific binding SB=TB-NSB
Table 1 lists results from this assay for inhibition of [^3 H]-PAF receptor binding for illustrative examples of the compounds of this invention. […]

[3] = test system: platelet activating factor; assay: antagonism of platelet activating factor (statement in words)

T1 sequence (P25105 whole entry): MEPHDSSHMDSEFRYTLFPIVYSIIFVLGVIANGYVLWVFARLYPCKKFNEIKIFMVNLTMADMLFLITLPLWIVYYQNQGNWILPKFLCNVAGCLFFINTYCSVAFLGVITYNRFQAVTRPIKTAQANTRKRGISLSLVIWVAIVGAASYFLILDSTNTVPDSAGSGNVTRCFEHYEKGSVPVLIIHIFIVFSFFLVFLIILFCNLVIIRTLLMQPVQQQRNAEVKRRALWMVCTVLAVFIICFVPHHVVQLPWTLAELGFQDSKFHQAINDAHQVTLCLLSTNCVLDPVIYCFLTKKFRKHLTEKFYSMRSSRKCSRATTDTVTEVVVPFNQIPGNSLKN

Structure (SMILES) | ED50 [1] [µg/kg] | IC50 [2] [nM] | antagonism of platelet activating factor (in words) [3]
CCc1noc([C@H](CC(C)C)N(C)S(=O)(=O)c2ccc(Cn3c(C)nc4cnccc43)cc2)n1 [Example 156, N-Methyl-N-4-(1H-2-methylimidazo[4,5-c]pyridinylmethyl)phenylsulphonyl-1-(3-ethyl-1,2,4-oxadiazol-5-yl)-3-methylbutylamine] | 0.6 | – | –
CC1=C(/C=C/C(C)=C/C=C/C(C)=C/C(=O)OC[C@H](CC(C)C)N(C)S(=O)(=O)c2ccc(Cn3c(C)nc4cnccc43)cc2)C(C)(C)CCC1 [Example 79, O-Retinoyl-N-methyl-N-4-(1H-2-methylimidazo[4,5-c]pyridinylmethyl)phenylsulphonyl-L-leucinol] | – | 4 | –
Cc1noc([C@H](CC(C)C)N(C)S(=O)(=O)c2ccc(Cn3c(C)nc4cnccc43)cc2)n1 [Example 155, N-Methyl-N-4-(1H-2-methylimidazo[4,5-c]pyridinylmethyl)phenylsulphonyl-1-(3-methyl-1,2,4-oxadiazol-5-yl)-3-methylbutylamine] | – | 2 | –
Cc1nc2ccn(Cc3ccc(S(=O)(=O)N(C)Cc4cccs4)cc3)cc-2n1 [N-methyl-N-4-(5H-2-methylimidazo[4,5-c]pyridinylmethyl)phenylsulphonyl-2-thienylmethylamine] | – | – | are antagonists of platelet activating factor
CCCCCCCCCCCCCCCCCCNC(=O)OC[C@H](CC(C)C)N(C)S(=O)(=O)c1ccc(Cn2c(C)nc3cnccc32)cc1 [Example 109, O-Octadecylaminocarbonyl-N-methyl-N-4-(1H-2-methylimidazo[4,5-c]pyridinylmethyl)phenylsulphonyl-L-leucinol] | – | 3 | –
CCC(=O)OC[C@H](CC(C)C)N(C)S(=O)(=O)c1ccc(Cn2c(C)nc3cnccc32)cc1 [Example 45, O-Propanoyl-N-methyl-N-4-(1H-2-methylimidazo[4,5-c]pyridinylmethyl)phenylsulphonyl-L-leucinol] | – | 0.5 | –
CCOC(=O)C(=O)OC[C@H](CC(C)C)N(C)S(=O)(=O)c1ccc(Cn2c(C)nc3cnccc32)cc1 [Example 47, O-Ethyloxaloyl-N-methyl-N-4-(1H-2-methylimidazo[4,5-c]pyridinylmethyl)phenylsulphonyl-L-leucinol] | – | 2 | –
Cc1nc2cnccc2n1Cc1ccc(S(=O)(=O)N(C)[C@H](COC(=O)NCc2ccccn2)CC(C)C)cc1 [Example 108, O-Pyridin-2-ylmethylaminocarbonyl-N-methyl-N-4-(1H-2-methylimidazo[4,5-c]pyridinylmethyl)phenylsulphonyl-L-leucinol] | 6.6 | – | –
CC(=O)Oc1ccccc1C(=O)OC[C@H](CC(C)C)N(C)S(=O)(=O)c1ccc(Cn2c(C)nc3cnccc32)cc1 [Example 49, O-2-Acetoxybenzoyl-N-methyl-N-4-(1H-2-methylimidazo[4,5-c]pyridinylmethyl)phenylsulphonyl-L-leucinol] | 2.2 | 2 | –
Cc1nc2ccncc2n1Cc1ccc(S(=O)(=O)N(C)Cc2cccs2)cc1 [N-methyl-N-4-(3 H-2-methylimidazo[4,5-c]pyridinylmethyl)phenylsulphonyl-2-thienylmethylamine] | – | – | are antagonists of platelet activating factor
Cc1nc2cnccc2n1Cc1ccc(S(=O)(=O)N(C)[C@H](CO)CC(C)C)cc1 [Example 1, N-Methyl-N-4-(1H-2-methylimidazo[4,5-c]pyridinylmethyl)phenylsulphonyl-L-leucinol] | – | 7 | –
CCCCCCCCCCCCCCCCCC(=O)OC[C@H](CC(C)C)N(C)S(=O)(=O)c1ccc(Cn2c(C)nc3cnccc32)cc1 [Example 44, O-Octadecanoyl-N-methyl-N-4-(1H-2-methylimidazo[4,5-c]pyridinylmethyl)phenylsulphonyl-L-leucinol] | 4.6 | 1 | –
CN(C(=O)c1ccc(Cn2cnc3cnccc32)cc1)C1CCCCC1 [Comparative Example, N-Cyclohexyl-N-methyl-4-(1H-imidazo[4,5-c]pyridinylmethyl)benzamide, reference compound] | 150 | – | –
COc1ccc(SCC(=O)OC[C@H](CC(C)C)N(C)S(=O)(=O)c2ccc(Cn3c(C)nc4cnccc43)cc2)cc1OC [Example 78, O-2-(3,4-Dimethoxyphenylmercapto)ethanoyl-N-methyl-N-4-(1H-2-methylimidazo[4,5-c]pyridinylmethyl)phenylsulphonyl-L-leucinol] | 5.8 | – | –
